In US9839642B2, “Beta-tetrazolyl-propionic acids as metallo-beta-lactamase inhibitors” (priority 2014, dated 2017):
Where two headings read alike, the source gives them in different places.

Key:
[1] = tested on: Klebsiella pneumoniae expressing VIM-1 (IHMA599644); test: Antibiotic potentiation activity: synergistic concentration (MITC95) with imipenem, growth by OD600; assay type: cell-based
Procedure, shortened: (§1)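 Colonies from overnight agar plates (35 °C) were suspended in saline and diluted 1:100 into 1.1× CAMHB. Inhibitor (final 200 μM to 0.195 μM) was combined with imipenem at 1 or 4 μg/ml, incubated 22–24 h at 35 °C, and absorbance read; MITC95 is the lowest inhibitor concentration giving 95% growth inhibition.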

[2] = tested on: Serratia marcescens expressing IMP-1 (CL5741); test: as above; assay type: cell-based
Procedure, shortened: as §1

[3] = tested on: Escherichia coli expressing NDM-1 (CLB30005); test: as above; assay type: cell-based; details: 95% inhibition of bacterial growth, strain CLB30005
Procedure, shortened: as §1

[4] = target: NDM-1 (Klebsiella pneumoniae, UniProt C7C422); test: Enzyme activity: determination of IC50, fluorescence assay with CCF2-FA substrate; assay type: biochemical; details: CCF2-FA 1.25 μM, 2 hours at 25° C.
NDM-1, sequence (C7C422 29-270, looked up, species assumed): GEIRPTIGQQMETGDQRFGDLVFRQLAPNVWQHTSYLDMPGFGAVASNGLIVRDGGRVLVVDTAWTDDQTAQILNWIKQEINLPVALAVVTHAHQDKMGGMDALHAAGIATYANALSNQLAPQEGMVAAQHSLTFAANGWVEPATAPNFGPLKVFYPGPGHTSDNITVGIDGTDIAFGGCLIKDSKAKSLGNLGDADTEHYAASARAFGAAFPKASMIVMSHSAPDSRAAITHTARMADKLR
Procedure, shortened: (§2)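 Enzyme at 1 pM (NDM-1), 2 pM (IMP-1) or 30 pM (VIM-1) was incubated with inhibitor (20 μM to 0.00063 μM) and 1.25 μM CCF2-FA in 100 mM KH2PO4 pH 7, 0.005% Tween-20, 10 μM ZnSO4 for 2 hours at 25° C. Fluorescence was read at ex 405/em 460 nm; IC50 from 4-parameter fit.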

[5] = target: VIM-1 (Pseudomonas aeruginosa, UniProt A0A0F7KYQ8); test: as above; assay type: biochemical; details: CCF2-FA 1.25 μM, 2 hours at 25° C., read-out: VIM1 IC50
Procedure, shortened: as §2

[6] = target: IMP-1 (Serratia marcescens, UniProt P52699); test: as above; assay type: biochemical; details: CCF2-FA 1.25 μM, 2 hours at 25° C., read-out: IMP1 IC50
IMP-1, sequence (P52699 19-246, looked up, species assumed): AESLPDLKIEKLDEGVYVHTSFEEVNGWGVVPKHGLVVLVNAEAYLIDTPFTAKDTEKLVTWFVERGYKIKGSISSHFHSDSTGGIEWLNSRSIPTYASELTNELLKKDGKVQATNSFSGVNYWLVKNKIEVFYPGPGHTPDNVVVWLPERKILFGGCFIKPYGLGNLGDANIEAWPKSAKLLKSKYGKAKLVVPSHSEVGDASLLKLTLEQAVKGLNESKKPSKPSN
Procedure, shortened: as §2

[7] = tested on: Escherichia coli expressing NDM-1 (CLB30016); test: Antibiotic potentiation activity: synergistic concentration (MITC95) with imipenem, growth by OD600; assay type: cell-based; details: E. coli CLB30016 (NDM-1), 95% inhibition of growth
Procedure, shortened: as §1

[8] = 95% inhibition of bacterial growth, strain IHMA599644
[9] = 95% inhibition of bacterial growth, strain CL5741
[10] = enzyme 1 pM, read-out: NDM1 IC50
[11] = K. pneumoniae IHMA599644 (VIM-1), 95% inhibition of growth
[12] = S. marcescens CL5741 (IMP-1), 95% inhibition of growth
[13] = NDM-1 enzyme 1 pM, read-out: NDM1 IC50

Compound | VIM1 KP599644 MITC95 [1, 8] [µM] | IMP1 SM5741 MITC95 [2, 9] [µM] | NDM1 EC30005 MITC95 [3] [µM] | IC50 [4, 10] [nM] | IC50 ([5]; enzyme 30 pM) [nM] | IC50 ([6]; enzyme 2 pM) [nM] | NDM1 EC30016 MITC95 [7] [µM] | VIM1 KP599644 MITC95 [1, 11] [µM] | IMP1 SM5741 MITC95 [2, 12] [µM] | IC50 [4, 13] [nM] | IC50 ([5]; VIM-1 enzyme 30 pM) [nM] | IC50 ([6]; IMP-1 enzyme 2 pM) [nM] | IC50 ([4]; NDM1 IC50, NDM-1 enzyme 1 pM) [nM]
COCCC[C@H](C(=O)O)[C@H](Cc1ccccc1)c1nnn[nH]1 [Example 9, (2S)-5-methoxy-2-[(1S)-2-phenyl-1-(1H-tetrazol-5-yl)ethyl]pentanoic acid] | 200 | 25 | 31 | 97 | 63 | 850 |  |  |  |  |  |  | 
O=C(O)[C@@H](CC1CCCC1)[C@H](Cc1ccccc1)c1nnn[nH]1 [Example 10, (2S,3S)-2-(cyclopentylmethyl)-4-phenyl-3-(1H-tetrazol-5-yl)butanoic acid] | 150 | 7.0 | 50 | 47 | 29 | 48 |  |  |  |  |  |  | 
O=C(O)[C@@H](CCC1CCCCC1)[C@H](Cc1ccccc1)c1nnn[nH]1 [Example 11, (2S,3S)-2-(2-cyclohexylethyl)-4-phenyl-3-(1H-tetrazol-5-yl)butanoic acid] | >200 | 27 | 25 | 57 | 34 | 230 |  |  |  |  |  |  | 
O=C(O)[C@@H](C1CCOCC1)[C@H](Cc1ccccc1)c1nnn[nH]1 [Example 12, (2S,3S)-4-phenyl-2-(tetrahydro-2H-pyran-4-yl)-3-(1H-tetrazol-5-yl)butanoic acid] | 200 | 200 | 12.5 | 99 | 84.7 | 1050 |  |  |  |  |  |  | 
CNC1CC=C(c2ccc(C[C@H](c3nn[nH]n3)[C@H](CC(C)C)C(=O)O)cc2F)CC1 (stereo partly drawn) [Example 451, 4′-((2S,3S)-3-carboxy-5-methyl-2-(2H-tetrazol-5-yl)hexyl)-2′-fluoro-N-methyl-2,3,4,5-tetrahydro-[1,1′-biphenyl]-4-aminium 2,2,2-trifluoroacetate] |  |  |  |  |  |  | 9.375 | 25 | 3.125 | 30.8 | 10.1 | 27.2 | 
CC(C)C[C@H](C(=O)O)[C@H](Cc1ccc(C2=CCNC2)c(F)c1)c1nn[nH]n1 [Example 452, 3-(4-((2S,3S)-3-carboxy-5-methyl-2-(2H-tetrazol-5-yl)hexyl)-2-fluorophenyl)-2,5-dihydro-1H-pyrrol-1-ium 2,2,2-trifluoroacetate] |  |  |  |  |  |  | 9.375 | 12.5 | 9.375 | 93.1 | 0.937 | 222 | 
CC(C)C[C@H](C(=O)O)[C@H](Cc1ccc(C2=CCNCC2)c(F)c1)c1nn[nH]n1 [Example 453, 4-(4-((2S,3S)-3-carboxy-5-methyl-2-(2H-tetrazol-5-yl)hexyl)-2-fluorophenyl)-1,2,3,6-tetrahydropyridin-1-ium 2,2,2-trifluoroacetate] |  |  |  |  |  |  | 6.25 | 12.5 | 3.125 |  | 2.25 | 101 | 64.5
CC(C)C[C@H](C(=O)O)[C@H](Cc1ccc(-c2ccc(CN)cc2)c(F)c1)c1nn[nH]n1 [Example 454, (4′-((2S,3S)-3-carboxy-5-methyl-2-(2H-tetrazol-5-yl)hexyl)-2′-fluoro-[1,1′-biphenyl]-4-yl)methanaminium 2,2,2-trifluoroacetate] |  |  |  |  |  |  | 4.688 | 25 | 1.563 | 29.5 | 3.52 | 24.7 | 
CC(C)C[C@H](C(=O)O)[C@H](Cc1ccc(C2=CCC(N)CC2)c(F)c1)c1nn[nH]n1 (stereo partly drawn) [Example 455, 4′-((2S,3S)-3-carboxy-5-methyl-2-(2H-tetrazol-5-yl)hexyl)-2′-fluoro-2,3,4,5-tetrahydro-[1,1′-biphenyl]-4-aminium 2,2,2-trifluoroacetate] |  |  |  |  |  |  | 4.688 | 18.75 | 3.125 | 23.4 | 3.38 | 23.9 | 
CC(C)C[C@H](C(=O)O)[C@H](Cc1ccc(-c2ccc(C(N)=O)cc2)c(F)c1)c1nn[nH]n1 [Example 456, (S)-2-((S)-2-(4′-carbamoyl-2-fluoro-[1,1′-biphenyl]-4-yl)-1-(2H-tetrazol-5-yl)ethyl)-4-methylpentanoic acid] |  |  |  |  |  |  | 18.75 | 37.5 | 0.7813 | 4.35 | 0.637 | 7.09 | 
